In patent US10456465B2, “Compositions, kits, and methods for the diagnosis prognosis, monitoring, treatment and modulation of post-transplant lymphoproliferative disorders and hypoxia associated angiogenesis disorders using galectin-1” (Dana-Farber Cancer Institute, Inc., priority 2009, dated 2019):

Key:
KS cells = experiment: Gal1 expression and secretion by KS cells (hypoxia/normoxia); format: cell-based, human; details: for IκB-α degradation: hypoxia; for hypoxia-driven Gal1 expression and secretion: hypoxia (1% O2)
Gal1 = biological target: T1, Gal1 (Homo sapiens, UniProt P09382); experiment: Binding of 488-Gal1 to HUVEC; details: lactose/sucrose 30 mM, swainsonine 3 μM, benzyl-α-GalNAc 2 mM, mAb 0.5 μM
T1 construct: made in house
T1 sequence (P09382 whole entry): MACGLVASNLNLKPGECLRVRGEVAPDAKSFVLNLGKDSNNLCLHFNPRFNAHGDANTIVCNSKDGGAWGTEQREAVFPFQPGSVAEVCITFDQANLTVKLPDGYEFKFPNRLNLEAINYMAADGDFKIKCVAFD
Description: For glycophenotyping, ECs were incubated with biotinylated L-PHA, LEL, SNA, MAL II, PNA and HPA (all from Vector). Recombinant Gal1 was purified as described in Ilarregui et al. (2009) Nat Immunol 10, 981-991. For binding assays, ECs were incubated for 1 h at 4° C. with dyLight 488-labeled galectins in the absence or presence of lactose, sucrose, anti-Gal1 or isotype control mAb or following transfection with GnT5, GCNT1 or scrambled siRNA. Cells were analyzed on a FACSAria (BD Biosciences). For segregation, ECs were treated with Gal1 for 1 h, fixed and incubated for 1 h with anti-human VEGFR2 antibody (55B11; Cell Signaling) as described in Ilarregui et al. (2009) Nat Immunol 10, 981-991. Cells were analyzed on a Nikon laser confocal microscope (Eclipse E800).
DyLight 488-conjugated Gal1 (488-Gal1) was obtained using DyLight labeling kit (Thermo Scientific). Inhibitors of Jak2-STAT3 (AG490; 5 μM), Jnk-SAP (SP600125; 20 μM), p38 (SB202190; 10 μM), HIF-1α (3 μM) and O-glycosylation (benzyl-α-Ga1NAc; 2 mM) were from Calbiochem. Inhibitors of Erk1/2 (U0126; 5 μM), PI(3)K-Akt (Ly294002; 2 μM) and NF-κB (BAY 11-7082; 1 μM), ROS (N-acetyl-cysteine; NAC), N-glycosylation (swainsonine; 3 μM), lactose or sucrose (30 mM) were from Sigma. PNGase F (25 U/μg protein) was from New England Biolabs. Recombinant cytokines including IL-10 (50 ng/ml), IL-17 (5 ng/ml), TGF-β1 (3 ng/ml), IFN-γ (50 ng/ml), VEGF (20 ng/ml), bFGF (10 ng/ml) were from R&D. TNF (20 ng/ml) was from Sigma. Biotinylated lectins, including L-PHA (2 μg/ml), LEL (1 μg/ml), SNA (5 μg/ml), MAL II (10 μg/ml), PNA (10 μg/ml) and HPA (10 μg/ml) were purchased from Vector Labs and incubated in buffer containing 150 mM NaCl, 10 mM HEPES and 1% BSA (Sigma). ON-TARGETplus SMART siRNA pools against GnT5, GCNT1, VEGFR2, NRP-1, VEGF, HIF-1α and scrambled were obtained from Dharmacon. Transfections were performed by Lipofectamine-RNAiMAX (Invitrogen) following manufacturer's directions. Recombinant Gal3 and Gal8 were purified as described in Acosta-Rodriguez et al. (2004) J Immunol 172, 493-502 and Cardenas Delgado et al. (2010) FASEB J [Epub ahead of print].

HUVEC [1] = experiment: HUVEC migration (transwell); format: cell-based, human; details: induced by Gal1
Description: (§1) HUVEC transfected or not with specific siRNA or pre-incubated with signaling pathway inhibitors were exposed to VEGF or Gal1 with or without lactose, sucrose, 8F4F8G7 mAb or control isotype (IgG1κ) or specific antibodies for VEGFR1 (AP-MAB0702; Abcam), VEGFR2 (AF357; R&D), VEGFR3 (AB89501; Abcam) or VEGF (MAB293; R&D). Cells were processed for proliferation, migration, invasion and tube formation assays. Tumor-associated blood vessels were identified by flow cytometry using Alexa Fluor 647-conjugated anti-CD34 antibody (RAM34; eBioscience).
(§2) The formation of capillary-like tubular structures was assessed in Matrigel-coated plates essentially as described in Albini et al. (2001), Cancer Res 61, 8171-8178. In brief, HUVEC (3×10^4 cells/ml) transfected or not with specific siRNA or pre-incubated with signaling pathway inhibitors were seeded on Matrigel with our without Gal1 (0.1 to 3 μM) or VEGF (20 ng/ml) with or without lactose, sucrose, 8F4F8G7 mAb (0.5 μM) or isotype control (IgG1K) or blocking antibodies specific for VEGFR1 (5 μg/ml), VEGFR2 (2 μg/ml), VEGFR3 (10 μg/ml) or VEGF (10 μg/ml). Cells were incubated at 37° C. for periods ranging from 0 to 24 h and were visualized by phase-contrast microscopy. In another set of experiments, conditioned medium from hypoxic or normoxic KS cells infected or not with a retroviral vector containing Gal1 shRNA was assessed on HUVEC transfected or not with GnT5, GCNT1 or scr siRNA (100 nM). Capillary-like tubular structures were scored by counting the number of tubules (closed areas) per well in a phase-contrast microscope (Nikon E-100). For migration assays, HUVEC (4×10^4/well) transfected or not with specific siRNA were resuspended in M199 medium supplemented with 1% FCS. Cells were placed into the top chamber of the insert while the bottom well was filled with Gal1 or VEGF in the absence or presence of lactose, sucrose, 8F4F8G7 mAb or isotype control. After 24 hours, inserts were stained with crystal violet (Sigma) and analyzed in an inverted microscope. For each filter, 4 images were collected and cells were counted with the ImageJ software v1.34 (NIH).

HUVEC [2] = experiment: HUVEC capillary tube formation on Matrigel; format: cell-based, human; details: induced by Gal1
Description: as §1, §2

mice (Matrigel plugs) = experiment: In vivo vascularization of Matrigel sponges; design: species or system mouse; details: lactose 30 mM
Description: Invasion assays were performed using the BioCoat Angiogenesis system (BD Biosciences) following manufacturer's recommendations. For assessment of in vivo angiogenesis, growth factor-reduced Matrigel (BD Biosciences) was mixed with Gal1 (0.1 or 3 μM) with or without lactose (30 mM). In another set of experiments, serum-free CM from KS cells infected or not with a retroviral vector expressing Gal1 shRNA and cultured under hypoxic or normoxic conditions, were added to unpolymerized Matrigel and injected subcutaneously into the flanks of either wild-type or Lgals1^−/− (B6) mice or nude mice using a cold syringe. Matrigel embedded with buffer alone was used as negative control and a cocktail containing VEGF (50 ng/ml), heparin (50 U/ml) and TNF (2 ng/ml) was used as positive control. After 6 days, Matrigel plugs were collected by surgery, photographed and weighed. Samples were minced and diluted in water to measure hemoglobin content using the Drabkin reagent kit (Sigma). Each sample was normalized to 100 mg of recovered gel and confronted with a standard curve of mouse blood hemoglobin.

HUVEC [3] = experiment: HUVEC proliferation ([3H]thymidine incorporation); format: cell-based, human; details: induced by Gal1
Description: as §1
For proliferation assays, HUVEC that were transfected or not with specific siRNA and cultured in complete M199 medium were trypsinized, harvested and seeded in 96-well microtiter plates (1×10^3 cells/well). Cells were pre-incubated for 1 hour at 37° C. with lactose, sucrose or signaling pathway inhibitors and then exposed to Gal1. After 24 hours, cells were incubated for an additional 24 hours in the presence of 0.8 μCi [^3H]-thymidine (NEN Dupont). Cells were then harvested and radioactivity was measured in a 1414 Liquid Scintillation Counter (Perkin Elmer).

SMILES: Cc1ccc(S(=O)(=O)/C=C/C#N)cc1 [BAY-117802]
- IκB-α degradation (KS cells; KS cells): prevented
- hypoxia-driven Gal1 expression and secretion (KS cells; KS cells): completely eliminated

SMILES: OO [H2O2]
- secretion of Gal1 (KS cells; KS cells, exogenous administration): stimulated

SMILES: CC(=O)N[C@H]1[C@@H](OCc2ccccc2)O[C@H](CO)[C@H](O)[C@@H]1O [benzyl-α-Ga1NAc]
- effect on binding of Gal1 to ECs (Gal1): only partially inhibitory

SMILES: [Cl-].[Cl-].[Co+2] [CoCl2]
- Gal1 expression (KS cells): no effect

SMILES: OC[C@H]1O[C@@](CO)(O[C@H]2O[C@H](CO)[C@@H](O)[C@H](O)[C@H]2O)[C@@H](O)[C@@H]1O [sucrose]
- effect on binding of Gal1 to ECs (Gal1): not

SMILES: O[C@H]1[C@H]2[C@H](O)CCCN2C[C@H]1O [swainsonine]
- effect on binding of Gal1 to ECs (Gal1): almost completely abrogated

SMILES: CC(=O)N[C@@H](CS)C(=O)O [N-acetyl-cysteine]
- IκB-α degradation (KS cells; KS cells): prevented
- hypoxia-driven Gal1 expression and secretion (KS cells; KS cells): strongly inhibited

SMILES: OC[C@H]1O[C@@H](O[C@H]2[C@H](O)[C@@H](O)C(O)O[C@@H]2CO)[C@H](O)[C@@H](O)[C@H]1O (some centres unmarked) [lactose, reference compound]
- effect on Gal1-induced EC migration (HUVEC [1]): completely prevented
- effect on binding of Gal1 to ECs (Gal1): prevented
- effect on Gal1-induced capillary tube formation (HUVEC [2]): completely prevented
- effect on Gal1-induced vascularization of Matrigel sponges (mice (Matrigel plugs)): specifically inhibited
- effect on Gal1-induced EC proliferation (HUVEC [3]): completely prevented
